# ChEMBL document CHEMBL3612015, “Coumarins as anticancer agents: a review on synthetic strategies, mechanism of action and SAR studies” (Eur J Med Chem, 2015)
# pIC50: −log10 of the molar value.
# How the values were obtained:
# [1] = target: Proto-oncogene tyrosine-protein kinase Src (Homo sapiens, UniProt P12931); experiment: Inhibition of His6-tagged Src kinase domain (unknown origin) using AEEEIYGEFEAKKKK as substrate preincubated for 10 mins followed by substrate/ATP addition measured after 30 mins by fluorescence assay
# UO-31 = experiment: Cytotoxicity against human UO31 cells assessed as cell growth after 48 hrs by SRB assay relative to control; type: functional
# CAKI-1 = experiment: Cytotoxicity against human CAKI-1 cells assessed as cell growth after 48 hrs by SRB assay relative to control; type: functional
# [2] = Cytotoxicity against human NCI60 cells assessed as cell growth after 48 hrs by SRB assay; type: functional
# MDA-MB-231 = experiment: Cytotoxicity against human MDA-MB-231 cells assessed as cell growth after 48 hrs by SRB assay relative to control; type: functional
# NCI-H522 = experiment: Cytotoxicity against human NCI-H522 cells assessed as cell growth after 48 hrs by SRB assay relative to control; type: functional
# SK-OV-3 = experiment: Cytotoxicity against human SKOV3 cells assessed as cell proliferation after 72 hrs by CellTiter 96 aqueous one solution cell proliferation assay relative to control; type: functional
# MDA-MB-468 = experiment: Cytotoxicity against human MDA-MB-468 cells assessed as cell proliferation after 72 hrs by CellTiter 96 aqueous one solution cell proliferation assay relative to control; type: functional
# MCF7 [3] = experiment: Cytotoxicity against human MCF7 cells assessed as cell proliferation after 72 hrs by CellTiter 96 aqueous one solution cell proliferation assay relative to control; type: functional
# MCF7 [4] = experiment: Cytotoxicity against human MCF7 cells assessed as growth inhibition at 200 uM after 48 hrs by MTT assay relative to control; type: functional; details: MCF7, 48 h, read-out: GI
# MCF7 [5] = experiment: Cytotoxicity against human MCF7 cells assessed as growth inhibition at 100 uM after 48 hrs by MTT assay relative to control; type: functional; details: MCF7, 48 h, read-out: GI
# MCF7 [6] = experiment: Cytotoxicity against human MCF7 cells assessed as growth inhibition at 10 uM after 48 hrs by MTT assay relative to control; type: functional; details: MCF7, 48 h, read-out: GI
# MCF7 [7] = experiment: Cytotoxicity against human MCF7 cells assessed as growth inhibition at 50 uM after 48 hrs by MTT assay relative to control; type: functional; details: MCF7, 48 h, read-out: GI
# [8] = Cytotoxicity against rat CRL1548 cells after 48 hrs by crystal violet dye-binding assay; type: functional; details: CRL1548, 48 h, read-out: LD50 (the source's name)
# [9] = Cytotoxicity against rat CRL1439 cells after 48 hrs by crystal violet dye-binding assay; type: cell-based; details: read-out: LD50
# A549 = experiment: Cytotoxicity against human A549 cells after 48 hrs by crystal violet dye-binding assay; type: functional; details: A549, 48 h, read-out: LD50 (the source's name)
# HeLa [10] = experiment: Cytotoxicity against human HeLa cells assessed as growth inhibition after 72 hrs by MTT assay; type: functional, cell-based
# HepG2 = experiment: Cytotoxicity against human HepG2 cells assessed as growth inhibition after 72 hrs by MTT assay; type: functional, cell-based; details: HepG2, 72 h
# SW-620 = experiment: Cytotoxicity against human SW620 cells assessed as growth inhibition after 72 hrs by MTT assay; type: functional, cell-based; details: SW-620, 72 h
# MCF7 [11] = experiment: Cytotoxicity against human MCF7 cells after 48 hrs by MTT assay; type: functional, cell-based; details: MCF7, 48 h
# MCF7 [12] = experiment: Cytotoxicity against human MCF7 cells after 48 hrs by trypan blue assay; type: functional, cell-based; details: MCF7, 48 h
# HeLa [13] = experiment: Cytotoxicity against human HeLa cells after 72 hrs by MTT assay; type: functional, cell-based
# KETR3 = experiment: Cytotoxicity against human Ketr3 cells after 72 hrs by MTT assay; type: functional, cell-based; details: KETR3, 72 h
# MCF7 [14] = experiment: Cytotoxicity against human MCF7 cells after 72 hrs by MTT assay; type: functional, cell-based; details: MCF7, 72 h
# A2780 = experiment: Cytotoxicity against human A2780 cells after 72 hrs by MTT assay; type: functional, cell-based; details: A2780, 72 h
# Paracentrotus lividus [15] = experiment: Antimitotic activity in sea urchin embryo assessed as cleavage alterations; type: functional
# [16] = Cytotoxicity against human NCI60 cells assessed as cell growth; type: functional
# Paracentrotus lividus [17] = experiment: Antimitotic activity in sea urchin embryo assessed as embryo spinning; type: functional
# Paracentrotus lividus [18] = experiment: Antimitotic activity in sea urchin embryo assessed as cleavage arrest; type: functional
# Vero = experiment: Cytotoxicity against African green monkey Vero cells; type: cell-based; details: Chlorocebus sabaeus
# [19] = Cytotoxicity against human Hep2 cells; type: functional, cell-based; details: HEp-2
# U-937 [20] = experiment: Cytotoxicity against human U937 cells assessed as decrease in cell viability after 48 hrs; type: functional; details: U-937, 48 h
# U-937 [21] = experiment: Antiproliferative activity against human U937 cells after 3 days; type: functional, cell-based; details: U-937, 72 h
# Proto-oncogene tyrosine-protein kinase Src, sequence (P12931 2-536 limits assumed): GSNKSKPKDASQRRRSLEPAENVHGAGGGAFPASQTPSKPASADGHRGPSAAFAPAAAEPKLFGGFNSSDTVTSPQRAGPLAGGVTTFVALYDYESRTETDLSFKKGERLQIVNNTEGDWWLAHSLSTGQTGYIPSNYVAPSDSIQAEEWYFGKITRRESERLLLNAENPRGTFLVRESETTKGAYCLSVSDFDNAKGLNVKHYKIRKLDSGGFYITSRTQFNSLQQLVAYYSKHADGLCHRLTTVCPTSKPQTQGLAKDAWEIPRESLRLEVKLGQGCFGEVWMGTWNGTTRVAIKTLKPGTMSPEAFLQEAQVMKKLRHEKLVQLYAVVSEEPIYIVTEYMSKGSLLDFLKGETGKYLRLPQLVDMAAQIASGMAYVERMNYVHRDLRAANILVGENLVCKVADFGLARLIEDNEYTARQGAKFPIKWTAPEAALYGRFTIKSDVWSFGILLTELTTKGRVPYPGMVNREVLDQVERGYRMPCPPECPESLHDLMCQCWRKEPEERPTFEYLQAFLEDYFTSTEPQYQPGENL
structure (smiles),measurement,setting,value
Nc1ccc2c(C(F)(F)F)cc(=O)oc2c1,pIC50,[1],4.51
O=c1oc2ccccc2cc1C1=NN(c2ccccc2)C(c2ccc(O)cc2)C1 (stereo unspecified),Activity,UO-31,-63.77%
same,Activity,CAKI-1,-65.18%
same,Activity,[2],77.59%
same,Activity,MDA-MB-231,-67.37%
same,Activity,NCI-H522,-67.37%
CCCCCCc1c(C)c2ccc(N(CC)CCCC(=O)O)cc2oc1=O,pIC50,[1],4.44
CCCCCCCCCCc1c(C)c2ccc(N(CC)CCCC(=O)O)cc2oc1=O,pIC50,[1],4.67
CCCCCCCCCCc1c(C)c2ccc(N)cc2oc1=O,pIC50,[1],4.13
CCc1c(C)c2cc3c(c(O)c2oc1=O)OC(C)(C)CC3,Activity,SK-OV-3,30%
same,Activity,MDA-MB-468,85%
same,Activity,MCF7 [3],45%
CCCCCCCCCCc1c(C)c2cc3c(c(O)c2oc1=O)OC(C)(C)CC3,Activity,SK-OV-3,35%
same,Activity,MDA-MB-468,36%
same,Activity,MCF7 [3],57%
C=CCOc1cc2oc(=O)cc(-c3nc4ccccc4s3)c2cc1OCC=C,inhibition of growth at 200 µM,MCF7 [4],70.3%
same,inhibition of growth at 100 µM,MCF7 [5],43.8%
same,inhibition of growth at 10 µM,MCF7 [6],18.5%
same,inhibition of growth at 50 µM,MCF7 [7],25.3%
CC(=O)Oc1ccc(-c2c(-c3ccccc3)c3ccccc3oc2=O)cc1,CC50,[8],> 100 µM
same,CC50 at 48 h,[9],> 100 µM
same,CC50,A549,89.3 µM
CCN(CC)c1ccc2c(C)c(-c3ccc(OC(C)=O)cc3)c(=O)oc2c1,CC50,[8],45.1 µM
same,CC50 at 48 h,[9],49.1 µM
same,CC50,A549,48.1 µM
COc1ccc2c(Cn3cnc(C(N)=O)n3)cc(=O)oc2c1,pIC50,HeLa [10],4.45
Nc1nc(Cl)c2cnn(Cc3cc(=O)oc4cc(O)ccc34)c2n1,pIC50,HepG2,4.59
same,pIC50,SW-620,4.45
same,pIC50,HeLa [10],4.47
Cc1cc(C(=O)c2ccccc2Br)ccc1OCC(=O)NNC(=O)c1cc2ccccc2oc1=O,pIC50,MCF7 [11],5.12
same,pIC50,MCF7 [12],5.11
Cc1ccc(C(=O)c2cc(F)c(OCC(=O)NNC(=O)c3cc4ccccc4oc3=O)c(Cl)c2)cc1,pIC50,MCF7 [11],5.03
same,pIC50,MCF7 [12],5.03
Cc1cc(C(=O)c2ccc(Cl)cc2Cl)ccc1OCC(=O)NNC(=O)c1cc2ccccc2oc1=O,pIC50,MCF7 [11],4.99
same,pIC50,MCF7 [12],4.98
CO[C@@H]1[C@@H](N)[C@@H](O)[C@H](Oc2ccc3cc(NC(=O)c4ccccc4)c(=O)oc3c2Cl)OC1(C)C,pIC50,HeLa [13],5.27
same,pIC50,KETR3,4.84
same,pIC50,MCF7 [14],4.86
same,pIC50,A2780,5.55
CO[C@@H]1[C@@H](N)[C@@H](O)[C@H](Oc2ccc3cc(NC(=O)c4ccccc4)c(=O)oc3c2C)OC1(C)C,pIC50,HeLa [13],5.54
same,pIC50,KETR3,5.67
same,pIC50,MCF7 [14],5.09
same,pIC50,A2780,5.12
COc1ccc(-c2cc3cc(OC)c(OC)c(OC)c3oc2=O)cc1,EC,Paracentrotus lividus [15],0.2 µM
same,GI50,[16],3.98 µM
same,EC,Paracentrotus lividus [17],>5 µM
same,EC,Paracentrotus lividus [18],4 µM
Cc1cc(=O)oc2ccc(OCNc3ccc(F)cc3)cc12,pIC50,Vero,4.51
same,pIC50,[19],5.44
Cc1cc(=O)oc2ccc(OCNc3ccccc3O)cc12,pIC50,Vero,4.64
same,pIC50,[19],5.38
COc1ccccc1NCOc1ccc2oc(=O)cc(C)c2c1,pIC50,Vero,4.67
same,pIC50,[19],5.27
Cc1cc(=O)oc2cc(O)c(O)cc12 [4-METHYLESCULETIN],CC50,U-937 [20],76 µM
O=c1ccc2ccc(O)c(O)c2o1 [DAPHNETIN],pIC50,U-937 [21],4.08
same,CC50,U-937 [20],120 µM
